Results: ChEMBL document CHEMBL4229471, “Antiprotozoal and cysteine proteases inhibitory activity of dipeptidyl enoates” (Bioorg Med Chem, 2018)
Calls of active or inactive are those of the source. The rule behind the calls is not given here.

Legend:
[1] = molecular target: Rhodesain (Trypanosoma brucei rhodesiense) (UniProt Q95PM0); assay: Inhibition of Trypanosoma brucei rhodesiense rhodesain assessed as second-order rate constant using Cbz-Phe-Arg-AMC as substrate measured for 30 mins by fluorescence method
Cathepsin B [2] = molecular target: T1, Cathepsin B (Homo sapiens, UniProt P07858); assay: Inhibition of human cathepsin B assessed as second order rate constant using Cbz-Phe-Arg-AMC as substrate
Falcipain 2 = molecular target: T2, Falcipain 2 (Plasmodium falciparum, UniProt Q9N6S8); assay: Inhibition of Plasmodium falciparum falcipain-2 using Cbz-Phe-Arg-AMC as substrate measured for 15 mins by spectrofluorimetric method
T2 sequence (Q9N6S8 whole entry): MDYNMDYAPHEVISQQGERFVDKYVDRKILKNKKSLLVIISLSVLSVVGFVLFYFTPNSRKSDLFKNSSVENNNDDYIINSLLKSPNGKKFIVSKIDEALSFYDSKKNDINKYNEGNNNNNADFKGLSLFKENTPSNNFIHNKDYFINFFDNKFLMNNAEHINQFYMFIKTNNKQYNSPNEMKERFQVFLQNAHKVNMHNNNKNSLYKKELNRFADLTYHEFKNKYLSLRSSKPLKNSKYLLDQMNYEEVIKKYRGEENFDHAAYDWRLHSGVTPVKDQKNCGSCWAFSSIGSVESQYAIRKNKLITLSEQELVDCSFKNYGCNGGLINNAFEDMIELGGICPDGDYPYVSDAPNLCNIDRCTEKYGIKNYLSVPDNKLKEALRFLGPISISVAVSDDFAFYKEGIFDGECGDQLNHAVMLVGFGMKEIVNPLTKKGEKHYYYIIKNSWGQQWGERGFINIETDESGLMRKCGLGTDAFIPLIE

Rhodesain = Rhodesain (Trypanosoma brucei rhodesiense, UniProt Q95PM0); assay: Inhibition of Trypanosoma brucei rhodesiense rhodesain using Cbz-Phe-Arg-AMC as substrate measured for 30 mins by fluorescence method
[3] = Cytotoxicity against human HepG2 cells assessed as cell viability at 1 uM measured after 24 hrs by spectrophotometric method relative to control; format: cell-based; conditions: read-out: Activity
Plasmodium falciparum = assay: Antimalarial activity against erythrocytic stage of synchronized Plasmodium falciparum Dd2 after 48 hrs by Picogreen dye based fluorescence assay; format: functional, organism-based; conditions: Dd2, 48 h
[4] = test system: Trypanosoma brucei rhodesiense; assay: Antiprotozoal activity against patient derived Trypanosoma brucei rhodesiense STIB 900 bloodstream form after 70 hrs by Alamar Blue assay; format: functional, organism-based; conditions: STIB 900, 70 h
[5] = molecular target: Cruzipain (Trypanosoma cruzi) (UniProt P25779); assay: Inhibition of Trypanosoma cruzi cruzain at 20 uM relative to control
[6] = molecular target: T3, Falcipain 2 (Plasmodium falciparum) (UniProt Q9N6S8); assay: Inhibition of Plasmodium falciparum falcipain-2 assessed as second-order rate constant using Cbz-Phe-Arg-AMC as substrate measured for 15 mins by spectrofluorimetric method
T3 sequence (whole entry): T2 sequence (Q9N6S8 whole entry)

[7] = molecular target: Rhodesain (Trypanosoma brucei rhodesiense) (UniProt Q95PM0); assay: Inhibition of Trypanosoma brucei rhodesiense rhodesain at 20 uM using Cbz-Phe-Arg-AMC as substrate measured for 30 mins by fluorescence method relative to control
Leishmania donovani = assay: Antileishmanial activity against Leishmania donovani MHOM/ET/67/L82 axenic amastigotes after 70 hrs by alamar blue staining based fluorescence assay; format: functional, organism-based; conditions: MHOM/ET/67/L82, 70 h
Procathepsin L [8] = molecular target: T4, Procathepsin L (Homo sapiens, UniProt P07711); assay: Inhibition of human cathepsin L assessed as second order rate constant using Cbz-Phe-Arg-AMC as substrate
Target sequence in this assay (P07711 114-333 limits assumed): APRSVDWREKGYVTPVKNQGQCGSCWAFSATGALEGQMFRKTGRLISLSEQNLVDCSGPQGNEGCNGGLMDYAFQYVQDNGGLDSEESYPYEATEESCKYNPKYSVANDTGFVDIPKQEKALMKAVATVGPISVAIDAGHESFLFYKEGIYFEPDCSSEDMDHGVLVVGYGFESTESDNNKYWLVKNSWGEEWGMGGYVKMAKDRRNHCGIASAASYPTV

[9] = molecular target: T3, Falcipain 2 (Plasmodium falciparum); assay: Inhibition of Plasmodium falciparum falcipain-2 at 20 uM using Cbz-Phe-Arg-AMC as substrate measured for 15 mins by spectrofluorimetric method relative to control
Trypanosoma cruzi = assay: Antitrypanosomal activity against Trypanosoma cruzi Tulahuen strain C2C4 amastigote forms harboring LacZ infected in rat L6 cells after 96 hrs by CPRG/Nonidet reagent based photometric method; format: functional, organism-based; conditions: Tulahuen strain C2C4, L6, 96 h
Cathepsin B [10] = molecular target: T1, Cathepsin B; assay: Inhibition of human cathepsin B at 20 uM using Cbz-Phe-Arg-AMC as substrate relative to control
Procathepsin L [11] = molecular target: T4, Procathepsin L; assay: Inhibition of human cathepsin L at 20 uM using Cbz-Phe-Arg-AMC as substrate relative to control
Target sequence in this assay (P07711 114-333 limits assumed): as above

[12] = molecular target: Rhodesain (Trypanosoma brucei rhodesiense) (UniProt Q95PM0); assay: Reversible inhibition of Trypanosoma brucei rhodesiense rhodesain using Cbz-Phe-Arg-AMC as substrate pretreated for 30 mins followed by substrate addition and measured for 30 mins by dialysis method
[13] = molecular target: Cruzipain (Trypanosoma cruzi) (UniProt P25779); assay: Reversible inhibition of Trypanosoma cruzi cruzain pretreated for 30 mins followed by substrate addition and measured for 30 mins by dialysis method
[14] = molecular target: T3, Falcipain 2 (Plasmodium falciparum); assay: Irreversible inhibition of Plasmodium falciparum falcipain-2 using Cbz-Phe-Arg-AMC as substrate pretreated for 30 mins followed by substrate addition and measured for 30 mins by dialysis method
[15] = molecular target: Cruzipain (Trypanosoma cruzi) (UniProt P25779); assay: Irreversible inhibition of Trypanosoma cruzi cruzain pretreated for 30 mins followed by substrate addition and measured for 30 mins by dialysis method
Cruzipain = Cruzipain (Trypanosoma cruzi, UniProt P25779); assay: Inhibition of Trypanosoma cruzi cruzain
[16] = molecular target: Cruzipain (Trypanosoma cruzi) (UniProt P25779); assay: Inhibition of Trypanosoma cruzi cruzain assessed as second-order rate constant
[17] = molecular target: Rhodesain (Trypanosoma brucei rhodesiense) (UniProt Q95PM0); assay: Irreversible inhibition of Trypanosoma brucei rhodesiense rhodesain using Cbz-Phe-Arg-AMC as substrate pretreated for 30 mins followed by substrate addition and measured for 30 mins by dialysis method
Procathepsin L [18] = molecular target: T4, Procathepsin L; assay: Inhibition of human cathepsin L using Cbz-Phe-Arg-AMC as substrate
Target sequence in this assay (P07711 whole entry): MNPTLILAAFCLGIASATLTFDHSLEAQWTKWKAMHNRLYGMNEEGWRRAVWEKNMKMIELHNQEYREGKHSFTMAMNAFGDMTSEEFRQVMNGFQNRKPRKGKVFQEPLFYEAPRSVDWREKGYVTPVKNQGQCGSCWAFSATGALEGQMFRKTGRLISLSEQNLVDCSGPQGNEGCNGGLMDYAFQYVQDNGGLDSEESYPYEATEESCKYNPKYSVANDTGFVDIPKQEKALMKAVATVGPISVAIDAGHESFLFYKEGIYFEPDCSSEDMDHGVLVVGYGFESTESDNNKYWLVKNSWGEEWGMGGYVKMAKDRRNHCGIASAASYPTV

[19] = molecular target: T3, Falcipain 2 (Plasmodium falciparum); assay: Reversible inhibition of Plasmodium falciparum falcipain-2 using Cbz-Phe-Arg-AMC as substrate pretreated for 30 mins followed by substrate addition and measured for 30 mins by dialysis method
Cathepsin B [20] = molecular target: T1, Cathepsin B; assay: Inhibition of human cathepsin B using Cbz-Phe-Arg-AMC as substrate

Rhodesain (Trypanosoma brucei rhodesiense), sequence (Q95PM0 1-450): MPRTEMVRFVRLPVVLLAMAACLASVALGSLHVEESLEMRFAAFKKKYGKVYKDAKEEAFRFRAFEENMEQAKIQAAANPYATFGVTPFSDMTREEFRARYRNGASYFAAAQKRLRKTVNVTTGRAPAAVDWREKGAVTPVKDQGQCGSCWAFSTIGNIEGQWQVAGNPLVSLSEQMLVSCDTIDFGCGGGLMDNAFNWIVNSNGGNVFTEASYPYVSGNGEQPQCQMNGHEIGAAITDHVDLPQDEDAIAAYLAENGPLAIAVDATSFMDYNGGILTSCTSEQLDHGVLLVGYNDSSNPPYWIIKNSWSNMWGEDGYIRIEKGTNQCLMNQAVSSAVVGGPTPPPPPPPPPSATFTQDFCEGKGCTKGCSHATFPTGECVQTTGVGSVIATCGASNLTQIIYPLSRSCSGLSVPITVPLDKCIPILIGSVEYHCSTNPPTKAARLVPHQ
Cruzipain (Trypanosoma cruzi), sequence (P25779 123-467 limits assumed): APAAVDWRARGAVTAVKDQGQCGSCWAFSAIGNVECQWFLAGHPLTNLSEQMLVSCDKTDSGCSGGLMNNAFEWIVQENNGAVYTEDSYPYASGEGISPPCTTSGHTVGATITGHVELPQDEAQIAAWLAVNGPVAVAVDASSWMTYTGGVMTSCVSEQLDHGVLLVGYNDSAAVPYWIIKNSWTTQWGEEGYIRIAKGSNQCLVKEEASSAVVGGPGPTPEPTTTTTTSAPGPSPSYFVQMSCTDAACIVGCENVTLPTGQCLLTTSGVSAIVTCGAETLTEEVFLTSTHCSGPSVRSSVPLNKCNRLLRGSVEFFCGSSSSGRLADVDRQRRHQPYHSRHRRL
Rhodesain, sequence (Q95PM0 whole entry): as the sequence (Q95PM0 1-450) above
Cruzipain, sequence (P25779 whole entry): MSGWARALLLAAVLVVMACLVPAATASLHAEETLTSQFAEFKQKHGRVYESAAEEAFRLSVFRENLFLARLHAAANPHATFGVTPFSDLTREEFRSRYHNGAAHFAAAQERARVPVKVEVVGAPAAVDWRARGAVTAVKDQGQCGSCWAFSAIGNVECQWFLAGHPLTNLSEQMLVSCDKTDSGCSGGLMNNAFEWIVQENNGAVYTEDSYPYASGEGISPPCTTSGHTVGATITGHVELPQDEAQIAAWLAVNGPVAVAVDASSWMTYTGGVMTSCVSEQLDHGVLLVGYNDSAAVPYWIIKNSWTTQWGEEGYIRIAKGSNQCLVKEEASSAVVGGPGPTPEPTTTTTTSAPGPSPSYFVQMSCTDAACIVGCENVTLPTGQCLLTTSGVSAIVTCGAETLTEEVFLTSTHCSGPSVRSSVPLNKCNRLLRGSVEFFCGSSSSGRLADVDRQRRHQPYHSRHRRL

**Q.** For `CCOC(=O)/C=C/C(=O)[C@H](CCc1ccccc1)NC(=O)[C@H](Cc1ccccc1)NC(=O)OCc1ccccc1`, which K [1] is on record?
**A.** 1.27e+06 M⁻¹ s⁻¹

**Q.** And the K (Cathepsin B [2])?
**A.** 45500 M⁻¹ s⁻¹

**Q.** What about the IC50 (Falcipain 2) of the same molecule?
**A.** 0.06 µM

**Q.** What about the IC50 (Rhodesain) of the same molecule?
**A.** 0.03 µM

**Q.** What about the viability at 24 h, 1 µM [3] of the same molecule?
**A.** 100%

**Q.** What about the IC50 (Plasmodium falciparum) of the same molecule?
**A.** 16.1 µM

**Q.** And the IC50 [4]?
**A.** 0.93 µM

**Q.** And the inhibition [5]?
**A.** 99%

**Q.** What about the K [6] of the same molecule?
**A.** 17100 M⁻¹ s⁻¹

**Q.** And the inhibition [7]?
**A.** 100%

**Q.** What about the IC50 (Leishmania donovani) of the same molecule?
**A.** 12.6 µM

**Q.** What about the K (Procathepsin L [8]) of the same molecule?
**A.** 45300 M⁻¹ s⁻¹

**Q.** And the inhibition [9]?
**A.** 100%

**Q.** What about the IC50 (Trypanosoma cruzi) of the same molecule?
**A.** 20.1 µM

**Q.** What about the inhibition (Cathepsin B [10]) of the same molecule?
**A.** 100%

**Q.** And the inhibition (Procathepsin L [11])?
**A.** 100%

**Q.** For `CCOC(=O)/C=C/C=C/C(=O)[C@H](CCc1ccccc1)NC(=O)[C@H](Cc1ccccc1)NC(=O)N1CCOCC1`, which inhibition [12] is on record?
**A.** Active

**Q.** And the IC50 (Rhodesain)?
**A.** 0.56 µM

**Q.** What about the inhibition [13] of the same molecule?
**A.** Active

**Q.** What about the inhibition [14] of the same molecule?
**A.** Active

**Q.** What about the inhibition [15] of the same molecule?
**A.** Active

**Q.** And the IC50 (Cruzipain)?
**A.** > 2 µM

**Q.** What about the K [16] of the same molecule?
**A.** 0.56 M⁻¹ s⁻¹

**Q.** And the inhibition [7]?
**A.** 98%

**Q.** What about the inhibition [17] of the same molecule?
**A.** Active

**Q.** And the IC50 (Procathepsin L [18])?
**A.** 1.49 µM

**Q.** What about the Ki (Procathepsin L [18]) of the same molecule?
**A.** 780 µM

**Q.** What about the inhibition (Cathepsin B [10]) of the same molecule?
**A.** 90%

**Q.** What about the inhibition [19] of the same molecule?
**A.** Active

**Q.** What about the inhibition (Procathepsin L [11]) of the same molecule?
**A.** 99%

**Q.** What about the IC50 (Cathepsin B [20]) of the same molecule?
**A.** 2.25 µM

**Q.** What about the Ki (Cathepsin B [20]) of the same molecule?
**A.** 1.4 µM
